{"source": "patent US11427615B2", "about": "“Peptide compound and application thereof, and composition containing peptide compound” (XDCEXPLORER (SHANGHAI) CO., LTD., priority 2017, dated 2022)", "note": "Starred links: 1 amine or outer side, 2 acyl side, 3 side chain; linkers in the order of their positions; H or OH if unused. Non-standard residues stand in square brackets, D forms with d. Residues, ends and D or L forms follow the SMILES beside them. *: point of attachment. X6 = O=C([C@H](Cc1ccc(-n2cccn2)cc1)N[*:1])[*:2]; cPrCO(1-aminomethyl) = O=C(C1(CN[*:1])CC1)[*:2]; dPhe(2,4-Cl2) = N[C@H](Cc1ccc(Cl)cc1Cl)C(=O)O; PEG8 = NCCOCCOCCOCCOCCOCCOCCOCCOCCC(=O)O; Pro(4,4-F2) = O=C(O)[C@@H]1CC(F)(F)CN1; dPhe(4-I) = N[C@H](Cc1ccc(I)cc1)C(=O)O; Arg(Me) = CNC(=N)NCCC[C@H](N)C(=O)O; Palmitoyl = CCCCCCCCCCCCCCCC(=O)*; Hyp = O=C(O)[C@@H]1C[C@@H](O)CN1; Pip = O=C(O)[C@@H]1CCCCN1; Ac6c = NC1(C(=O)O)CCCCC1; Aze = O=C(O)[C@@H]1CCN1; azaGly = NNC(=O)O; βAla = NCCC(=O)O"}
{"biological_target": "T1, human kiss1 receptor (GPR54) (Homo sapiens, UniProt Q969F8)", "T1 construct": "host or cells: NFAT-bla CHO-K1 cells (Chinese hamster ovary), purchased recombinant cell line", "T1 sequence (Q969F8 whole entry)": "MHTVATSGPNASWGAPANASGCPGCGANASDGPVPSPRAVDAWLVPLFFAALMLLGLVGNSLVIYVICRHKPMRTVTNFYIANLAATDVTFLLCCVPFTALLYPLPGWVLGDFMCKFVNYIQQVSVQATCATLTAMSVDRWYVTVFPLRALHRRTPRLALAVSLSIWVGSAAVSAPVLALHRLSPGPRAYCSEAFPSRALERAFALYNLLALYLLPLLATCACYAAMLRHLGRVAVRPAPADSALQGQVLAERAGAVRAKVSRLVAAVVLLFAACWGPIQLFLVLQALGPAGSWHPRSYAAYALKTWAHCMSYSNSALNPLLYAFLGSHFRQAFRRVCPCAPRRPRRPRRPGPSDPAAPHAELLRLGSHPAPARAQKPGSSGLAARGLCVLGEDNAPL", "test": "Kiss1 receptor (GPR54) binding activity of agonists, FRET detection in NFAT-bla CHO-K1 cells", "format": "cell-based", "details": "GPR54; measured according to the method of effect Embodiment 1; preliminary data; read-out: Preliminary measurement data (GPR54) EC50", "units": {"EC50": "nM"}}
{"smiles": "CCCCCCCCCCCCCCCC(=O)NCCOCCOCCOCCOCCOCCOCCOCCOCCC(=O)NCC(=O)NCC(=O)N[C@H](Cc1ccc(I)cc1)C(=O)N1C[C@H](O)C[C@H]1C(=O)N[C@@H](CC(N)=O)C(=O)N[C@H](C(=O)N[C@@H](Cc1ccccc1)C(=O)NNC(=O)N[C@@H](CC(C)C)C(=O)N[C@@H](CCCNC(=N)NC)C(=O)N[C@@H](Cc1c[nH]c2ccccc12)C(N)=O)[C@@H](C)O", "note": "[YA-366, Palm-PEG8-Gly-Gly-(D-Phe(4-I))-Hyp-Asn-Thr-Phe-AzaGly-Leu-Arg(Me)-Trp-NH2] ({Palmitoyl-PEG8}-GG[dPhe(4-I)][Hyp]NTF[azaGly]L[Arg(Me)]W-NH2)", "EC50": 0.048}
{"smiles": "CNC(=N)NCCC[C@H](NC(=O)[C@H](CC(C)C)NC(=O)NNC(=O)[C@H](Cc1ccccc1)NC(=O)[C@@H]1CCN1C(=O)[C@H](CC(N)=O)NC(=O)[C@@H]1C[C@@H](O)CN1C(=O)[C@@H](Cc1ccc(O)cc1)NC(C)=O)C(=O)N[C@@H](Cc1c[nH]c2ccccc12)C(N)=O", "note": "[YA-388, Ac-(D-Tyr)-Hyp-Asn-Aze-Phe-azaGly-Leu-Arg(Me)-Trp-NH2] (Ac-[dY][Hyp]N[Aze]F[azaGly]L[Arg(Me)]W-NH2)", "EC50": 0.058}
{"smiles": "CNC(=N)NCCC[C@H](NC(=O)C(CC(C)C)C(=S)NCNC(=O)[C@H](Cc1ccccc1)NC(=O)[C@@H](NC(=O)[C@H](CC(N)=O)NC(=O)[C@@H]1C[C@@H](O)CN1C(=O)[C@@H](Cc1ccc(O)cc1)NC(C)=O)[C@@H](C)O)C(=O)N[C@@H](Cc1c[nH]c2ccccc12)C(N)=O", "note": "(single isomer, unassigned) [YA-254, Ac-(D-Tyr)-Hyp-Asn-Thr-Phe-ψ(NHCS)Gly-Leu-Arg(Me)-Trp-NH2]", "EC50": 0.03}
{"smiles": "CNC(=N)NCCC[C@H](NC(=O)[C@H](CC(C)C)NC(=O)NNC(=O)[C@H](Cc1ccccc1)NC(=O)[C@@H](NC(=O)[C@H](CC(N)=O)NC(=O)C1(CNC(=O)[C@@H](Cc2ccc(O)cc2)NC(C)=O)CC1)[C@@H](C)O)C(=O)N[C@@H](Cc1c[nH]c2ccccc12)C(N)=O", "note": "[YA-145, Ac-D-Tyr-ACPA-Asn-Thr-Phe-azaGly-Leu-Arg(Me)-Trp-NH2] (Ac-[dY][cPrCO(1-aminomethyl)]NTF[azaGly]L[Arg(Me)]W-NH2)", "EC50": 0.034}
{"smiles": "CNC(=N)NCCC[C@H](NC(=O)[C@H](CC(C)C)NC(=O)C1(NC(=O)[C@H](Cc2ccccc2)NC(=O)[C@@H](NC(=O)[C@H](CC(N)=O)NC(=O)[C@@H]2CC(F)(F)CN2C(=O)[C@@H](Cc2ccc(O)cc2)NC(C)=O)[C@@H](C)O)CCCCC1)C(=O)N[C@@H](Cc1c[nH]c2ccccc12)C(N)=O", "note": "[YA-251, Ac-D-Tyr-Pro(diF)-Asn-Thr-Phe-A6c-Leu-Arg(Me)-Trp-NH2] (Ac-[dY][Pro(4,4-F2)]NTF[Ac6c]L[Arg(Me)]W-NH2)", "EC50": 0.65}
{"smiles": "CCCCCCCCCCCCCCCC(=O)NCCOCCOCCOCCOCCOCCOCCOCCOCCC(=O)NCC(=O)NCC(=O)N[C@H](Cc1ccc(O)cc1)C(=O)N1C[C@H](O)C[C@H]1C(=O)N[C@@H](CC(N)=O)C(=O)N[C@H](C(=O)N[C@@H](Cc1ccccc1)C(=O)N1CC[C@H]1C(=O)N[C@@H](CC(C)C)C(=O)N[C@@H](CCCNC(=N)NC)C(=O)N[C@@H](Cc1c[nH]c2ccccc12)C(N)=O)[C@@H](C)O", "note": "[YA-287, Palm-PEG 8-Gly-Gly-D-Tyr-Hyp-Asn-Thr-Phe-Aze-Leu-Arg(Me)-Trp-NH2] ({Palmitoyl-PEG8}-GG[dY][Hyp]NTF[Aze]L[Arg(Me)]W-NH2)", "EC50": 0.038}
{"smiles": "CNC(=N)NCCC[C@H](NC(=O)[C@H](CC(C)C)NC(=O)NNC(=O)[C@H](Cc1ccccc1)NC(=O)[C@@H](NC(=O)[C@H](CC(N)=O)NC(=O)[C@@H]1C[C@@H](O)CN1C(=O)[C@@H](Cc1ccc(O)cc1)NC(=O)CCOCCOCCOCCOCCOCCOCCOCCOCCNC(C)=O)[C@@H](C)O)C(=O)N[C@@H](Cc1c[nH]c2ccccc12)C(N)=O", "note": "[YA-151, Ac-PEG8-(D-Tyr)-Hyp-Asn-Thr-Phe-azaGly-Leu-Arg (Me)-Trp-NH2] (Ac-[PEG8][dY][Hyp]NTF[azaGly]L[Arg(Me)]W-NH2)", "EC50": 0.045}
{"biological_target": "T1, human kiss1 receptor (GPR54)", "test": "Kiss1 receptor (GPR54) binding activity of agonists, FRET detection in NFAT-bla CHO-K1 cells", "format": "cell-based", "details": "NFAT-bla CHO-K1 cells that express human kiss1 receptor (GPR54); FRET; cells cultured with compound for 4 hours; read-out: GPR54 EC50/nM", "units": {"EC50": "nM"}}
{"smiles": "CC(=O)N[C@H](Cc1ccc(Cl)cc1Cl)C(=O)N1CCCC[C@H]1C(=O)N[C@@H](CC(N)=O)C(=O)N[C@H](C(=O)N[C@@H](Cc1ccccc1)C(=O)NNC(=O)N[C@@H](CC(C)C)C(=O)N[C@@H](Cc1ccc(-n2cccn2)cc1)C(=O)N[C@@H](Cc1c[nH]c2ccccc12)C(N)=O)[C@@H](C)O", "note": "[YA-242, Ac-[D-Phe(2,4-diCl)]—(S-Pip)-Asn-Thr-Phe-azaGly-Leu-Phe(4-Pyrazol)-Trp-NH2] (Ac-[dPhe(2,4-Cl2)][Pip]NTF[azaGly]L[X6]W-NH2)", "EC50": 3.75}
{"smiles": "CNC(=N)NCCC[C@H](NC(=O)[C@H](CC(C)C)NC(=O)C1(NC(=O)[C@H](Cc2ccccc2)NC(=O)[C@@H](NC(=O)[C@H](CC(N)=O)NC(=O)C2(NC(=O)[C@@H](Cc3ccc(O)cc3)NC(C)=O)CCCCC2)[C@@H](C)O)CCCCC1)C(=O)N[C@@H](Cc1c[nH]c2ccccc12)C(N)=O", "note": "[YA-243, Ac-D-Tyr-A6c-Asn-Thr-Phe-A6c-Leu-Arg(Me)-Trp-NH2] (Ac-[dY][Ac6c]NTF[Ac6c]L[Arg(Me)]W-NH2)", "EC50": 0.69}
{"biological_target": "T1, human kiss1 receptor (GPR54)", "test": "Kiss1 receptor (GPR54) binding activity of agonists, FRET detection in NFAT-bla CHO-K1 cells", "format": "cell-based", "details": "human kiss1 receptor (GPR54), NFAT-bla CHO-K1 cells, FRET; preliminary data; method of effect Embodiment 1; read-out: Preliminary measurement data (GPR54) EC50", "units": {"EC50": "nM"}}
{"smiles": "CNC(=N)NCCC[C@H](NC(=O)[C@H](CC(C)C)NC(=O)CCNC(=O)[C@H](Cc1ccccc1)NC(=O)[C@@H](NC(=O)[C@H](CC(N)=O)NC(=O)[C@@H]1C[C@@H](O)CN1C(=O)[C@@H](Cc1ccc(O)cc1)NC(C)=O)[C@@H](C)O)C(=O)N[C@@H](Cc1c[nH]c2ccccc12)C(N)=O", "note": "[YA-337, Ac-(D-Tyr)-Hyp-Asn-Thr-Phe-BetaAla-Leu-Arg(Me)-Trp-NH2] (Ac-[dY][Hyp]NTF[βAla]L[Arg(Me)]W-NH2)", "EC50": 2.2}
{"smiles": "CC(=O)N[C@H](Cc1ccc(Cl)cc1Cl)C(=O)N1CCCC[C@H]1C(=O)N[C@@H](CC(N)=O)C(=O)N[C@H](C(=O)N[C@@H](Cc1ccccc1)C(=O)NNC(=O)N[C@@H](CC(C)C)C(=O)N[C@@H](Cc1ccc(-n2cccn2)cc1)C(=O)N[C@@H](Cc1c[nH]c2ccccc12)C(N)=O)[C@@H](C)O", "note": "[YA-242, Ac-[D-Phe(2,4-diCl)]—(S-Pip)-Asn-Thr-Phe-azaGly-Leu-Phe(4-Pyrazol)-Trp-NH2] (Ac-[dPhe(2,4-Cl2)][Pip]NTF[azaGly]L[X6]W-NH2)", "EC50": 3.74}
